The values that follow come from publication PMC6215257, “Erianin against Staphylococcus aureus Infection via Inhibiting Sortase A” (Toxins, 2018).

One test has as its target T1, V193A-SrtA (Sortase A) (Staphylococcus aureus, UniProt Q2FV99, V193A).
T1 construct: residues 60–206 (pG-srtAΔN59, pGEX-6P-1)
The test is described as follows: fluorescence quenching binding constant (KA); FRET inhibition reduced vs WT.

A further test concerns the target T2, Sortase A (srtA) (Staphylococcus aureus, UniProt Q2FV99).
T2 construct: residues 60–206 (pG-srtAΔN59, pGEX-6P-1)
The test is described as follows: FRET peptide cleavage assay with purified SrtA; binding also by fluorescence quenching (KA […] L/mol). Type of test: biochemical.

The target in another test is T3, R197A-SrtA (Sortase A) (Staphylococcus aureus, UniProt Q2FV99, R197A).
T3 construct: residues 60–206 (pG-srtAΔN59, pGEX-6P-1)
The test is described as follows: fluorescence quenching binding constant (KA); FRET inhibition reduced vs WT.

Regarding `COc1ccc(CCc2cc(OC)c(OC)c(OC)c2)cc1O` [erianin], the Kd is 2280 nM at V193A-SrtA (Sortase A) and 2530 nM at R197A-SrtA (Sortase A). Moreover, the half-inhibitory concentration (IC50) on Sortase A (srtA) turned out to be 65700 ± 7200 nM.
